Laboratory results taken from US20200016159A1, “N3-CYCLICALLY SUBSTITUTED THIENOURACILS AND USE THEREOF” (Bayer Aktiengesellschaft, priority 2016, published 2020).

Biological target: T1, human adenosine A2b receptor (Homo sapiens, UniProt P29275)
T1 sequence (P29275 1-332): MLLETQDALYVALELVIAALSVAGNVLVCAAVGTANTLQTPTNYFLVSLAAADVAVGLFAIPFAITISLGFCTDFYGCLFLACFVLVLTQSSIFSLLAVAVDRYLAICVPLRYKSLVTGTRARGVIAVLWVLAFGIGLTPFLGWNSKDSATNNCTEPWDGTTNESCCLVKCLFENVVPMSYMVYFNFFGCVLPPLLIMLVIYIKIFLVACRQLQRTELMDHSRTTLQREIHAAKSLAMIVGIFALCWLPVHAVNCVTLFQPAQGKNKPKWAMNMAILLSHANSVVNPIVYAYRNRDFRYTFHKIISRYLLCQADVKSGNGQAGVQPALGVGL
Experiment: Cellular in vitro reporter gene test for A2b receptor activity (antagonism of NECA)
Assay type: cell-based
Design: expressed in transfected cells; host or cells: CHO-K1 (Chinese hamster ovary) with CRE-luciferase reporter
Settings: recombinant CHO-K1 cells, CRE-luciferase reporter, co-incubation with EC50 concentration of NECA, 3 hours
In short: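 Antagonism measured as block of NECA-induced, cAMP/CRE-dependent luciferase expression in recombinant A2b CHO-K1 cells. NECA used at the EC50 set in a pre-experiment on each test day; luminescence detected after 3 h. Reported as IC50, partly averaged and rounded to two significant figures.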

| SMILES | IC50 [nM] |
| --- | --- |
| Cc1c(CN2CCNC2=O)sc2c1c(=O)n(C1CC1(C)C)c(=O)n2CCC(F)(F)F (racemic) [Example 100, 3-(2,2-Dimethylcyclopropyl)-5-methyl-6-[(2-oxoimidazolidin-1-yl)methyl]-1-(3,3,3-trifluoropropyl)thieno[2,3-d]pyrimidine-2,4(1H,3H)-dione] | 12 |
| COC(=O)N=C1NCCN1Cc1sc2c(c1C)c(=O)n(C1CCC1)c(=O)n2CCC(F)(F)F [Example 112, Methyl [1-{[3-cyclobutyl-5-methyl-2,4-dioxo-1-(3,3,3-trifluoropropyl)-1,2,3,4-tetrahydrothieno[2,3-d]pyrimidin-6-yl]methyl}imidazolidin-2-ylidene]carbamate] | 1.2 |
| Cc1c(Cn2cc[nH]c2=O)sc2c1c(=O)n(C1CC1)c(=O)n2CC1CCCO1 (racemic) [Example 46, 3-Cyclopropyl-5-methyl-6-[(2-oxo-2,3-dihydro-H-imidazol-1-yl)methyl]-1-(tetrahydrofuran-2-ylmethyl)thieno[2,3-d]pyrimidine-2,4(1H,3H)-dione] | 39 |
| COC(=O)N=C1NCCN1Cc1sc2c(c1C)c(=O)n([C@H]1C[C@H](OC)C1)c(=O)n2CCC(F)(F)F [Example 146, Methyl [1-{[3-(trans-3-methoxycyclobutyl)-5-methyl-2,4-dioxo-1-(3,3,3-trifluoropropyl)-1,2,3,4-tetrahydrothieno[2,3-d]pyrimidin-6-yl]methyl}imidazolidin-2-ylidene]carbamate] | 6.2 |
| Cc1c(CN2CCNC2=O)sc2c1c(=O)n([C@H]1C[C@@H]1C)c(=O)n2CC1CC1(F)F (single isomer, unassigned) [Example 251] | 6.3 |
| Cc1c(Cn2nc[nH]c2=O)sc2c1c(=O)n(C1CC1)c(=O)n2CC1CCCC1(F)F (single isomer, unassigned) [Example 208, 3-Cyclopropyl-1-[(2,2-difluorocyclopentyl)methyl]-5-methyl-6-[(5-oxo-4,5-dihydro-1H-1,2,4-triazol-1-yl)methyl]thieno[2,3-d]pyrimidine-2,4(1H,3H)-dione] | 10 |
| COCCn1c(=O)n(C2CC2C(F)(F)F)c(=O)c2c(C)c(CN3CCNC3=O)sc21 (racemic) [Example 294, 1-(2-Methoxyethyl)-5-methyl-6-[(2-oxoimidazolidin-1-yl)methyl]-3-[2-(trifluoromethyl)cyclopropyl]thieno[2,3-d]pyrimidine-2,4(1H,3H)-dione] | 20 |
| Cc1c(Cn2cc[nH]c2=O)sc2c1c(=O)n(C1CC1)c(=O)n2CC1CCCO1 (single isomer, unassigned) [Example 47, 3-Cyclopropyl-5-methyl-6-[(2-oxo-2,3-dihydro-H-imidazol-1-yl)methyl]-1-(tetrahydrofuran-2-ylmethyl)thieno[2,3-d]pyrimidine-2,4(1H,3H)-dione] | 140 |
| COCCn1c(=O)n(C2CC3(CCC3)C2)c(=O)c2c(C)c(CN3CCNC(=O)C3=O)sc21 [Example 182, 6-[(2,3-Dioxopiperazin-1-yl)methyl]-1-(2-methoxyethyl)-5-methyl-3-(spiro[3.3]hept-2-yl)thieno[2,3-d]pyrimidine-2,4(1H,3H)-dione] | 27 |
| Cc1c(Cn2[nH]ccc2=O)sc2c1c(=O)n(C1CC1C)c(=O)n2CCOC(F)(F)F (racemic) [Example 273, 5-Methyl-3-(2-methylcyclopropyl)-6-[(5-oxo-2,5-dihydro-1H-pyrazol-1-yl)methyl]-1-[2-(trifluoromethoxy)ethyl]thieno[2,3-d]pyrimidine-2,4(1H,3H)-dione] | 67 |
| Cc1c(Cn2nc[nH]c2=O)sc2c1c(=O)n(C1CC1)c(=O)n2CC#N [Example 23, {3-Cyclopropyl-5-methyl-2,4-dioxo-6-[(5-oxo-4,5-dihydro-1H-1,2,4-triazol-1-yl)methyl]-3,4-dihydrothieno[2,3-d]pyrimidin-1 (2H)-yl}acetonitrile] | 130 |
| Cc1c(Cn2nc[nH]c2=O)sc2c1c(=O)n(C1CC1)c(=O)n2CCCC(F)(F)F [Example 201, 3-Cyclopropyl-5-methyl-6-[(5-oxo-4,5-dihydro-1H-1,2,4-triazol-1-yl)methyl]-1-(4,4,4-trifluorobutyl)thieno[2,3-d]pyrimidine-2,4(1H,3H)-dione] | 53 |
| Cc1c(CN2CCNC2=NC#N)sc2c1c(=O)n(C1CC1)c(=O)n2CC1CCCO1 (racemic) [Example 41, [1-{[3-Cyclopropyl-5-methyl-2,4-dioxo-1-(tetrahydrofuran-2-ylmethyl)-1,2,3,4-tetrahydrothieno[2,3-d]pyrimidin-6-yl]methyl}imidazolidin-2-ylidene]cyanamide] | 16 |
| Cc1c(CN2CCNC2=O)sc2c1c(=O)n([C@H]1C[C@@H]1C)c(=O)n2CC1COC1 [Example 285, 5-Methyl-3-[(1S,2S)-2-methylcyclopropyl]-1-(oxetan-3-ylmethyl)-6-[(2-oxoimidazoliddin-1-yl)methyl]thieno[2,3-d]pyrimidine-2,4(1H,3H)-dione] | 4.1 |
| CO[C@H]1C[C@H](n2c(=O)c3c(C)c(CN4CCNC(=O)C4=O)sc3n(CCC(F)(F)F)c2=O)C1 [Example 147, 6-[(2,3-Dioxopiperazin-1-yl)methyl]-3-(trans-3-methoxycyclobutyl)-5-methyl-1-(3,3,3-trifluoropropyl)thieno[2,3-d]pyrimidine-2,4(1H,3H)-dione] | 48 |
| Cc1c(CN2CCNC2=O)sc2c1c(=O)n(C1CC1)c(=O)n2C[C@@H]1CCCO1 [Example 39, 3-Cyclopropyl-5-methyl-6-[(2-oxoimidazolidin-1-yl)methyl]-1-[(2S)-tetrahydrofuran-2-ylmethyl]thieno[2,3-d]pyrimidine-2,4(1H,3H)-dione] | 240 |
| Cc1c(Cn2nc[nH]c2=O)sc2c1c(=O)n(C1CC1C)c(=O)n2CCOC(F)(F)F (single isomer, unassigned) [Example 278, 5-Methyl-3-(2-methylcyclopropyl)-6-[(5-oxo-4,5-dihydro-1H-1,2,4-triazol-1-yl)methyl]-1-[2-(trifluoromethoxy)ethyl]thieno[2,3-d]pyrimidine-2,4(1H,3H)-dione] | 1.6 |
| COCCn1c(=O)n(C2(C(F)(F)F)CC2)c(=O)c2c(C)c(CN3CCNC3=NC#N)sc21 [Example 86, [1-({1-(2-Methoxy ethyl)-5-methyl-2,4-dioxo-3-[1-(trifluoromethyl)cyclopropyl]-1,2,3,4-tetrahydrothieno[2,3-d]pyrimidin-6-yl}methyl)imidazolidin-2-ylidene]cyanamide] | 270 |
| Cc1c(Cn2nc[nH]c2=O)sc2c1c(=O)n([C@H]1C[C@@H]1C)c(=O)n2CC(F)F [Example 320, 1-(2,2-Difluoroethyl)-5-methyl-3-[(S,2S)-2-methylcyclopropyl]-6-[(5-oxo-4,5-dihydro-1H-1,2,4-triazol-1-yl)methyl]thieno[2,3-d]pyrimidine-2,4(1H,3H)-dione] | 13 |
| COCCn1c(=O)n(C2(C)CC2)c(=O)c2c(C)c(Cn3nc[nH]c3=O)sc21 [Example 74, 1-(2-Methoxyethyl)-5-methyl-3-(1-methylcyclopropyl)-6-[(5-oxo-4,5-dihydro-1H-1,2,4-triazol-1-yl)methyl]thieno[2,3-d]pyrimidine-2,4(1H,3H)-dione] | 86 |
| COCCn1c(=O)n(C2CC3(CCC3)C2)c(=O)c2c(C)c(CN3CCNC3=O)sc21 [Example 179, 1-(2-Methoxyethyl)-5-methyl-6-[(2-oxoimidazolidin-1-yl)methyl]-3-(spiro[3.3]hept-2-yl)thieno[2,3-d]pyrimidine-2,4(1H,3H)-dione] | 10 |
| COCCn1c(=O)n(C2CC2OC)c(=O)c2c(C)c(CN3CCNC3=O)sc21 (single isomer, unassigned) [Example 308, 3-(2-Methoxycyclopropyl)-1-(2-methoxyethyl)-5-methyl-6-[(2-oxoimidazolidin-1-yl)methyl]thieno[2,3-d]pyrimidine-2,4(1H,3H)-dione] | 870 |
| COC(=O)N=C1NCCN1Cc1sc2c(c1C)c(=O)n(C1CC3(CCC3)C1)c(=O)n2CCC(F)(F)F [Example 176, Methyl [1-{[5-methyl-2,4-dioxo-3-(spiro[3.3]hept-2-yl)-1-(3,3,3-trifluoropropyl)-1,2,3,4-tetrahydrothieno[2,3-d]pyrimidin-6-yl]methyl}imidazolidin-2-ylidene]carbamate] | 4 |
| Cc1c(Cn2nc[nH]c2=O)sc2c1c(=O)n(C1(C)CC1)c(=O)n2C [Example 53, 1,5-Dimethyl-3-(1-methylcyclopropyl)-6-[(5-oxo-4,5-dihydro-1H-1,2,4-triazol-1-yl)methyl]thieno[2,3-d]pyrimidine-2,4(1H,3H)-dione] | 120 |
| Cc1c(Cn2nc[nH]c2=O)sc2c1c(=O)n(C1CC1)c(=O)n2CC1CCCO1 (racemic) [Example 49, 3-Cyclopropyl-5-methyl-6-[(5-oxo-4,5-dihydro-1H-1,2,4-triazol-1-yl)methyl]-1-(tetrahydrofuran-2-ylmethyl)thieno[2,3-d]pyrimidine-2,4(1H,3H)-dione] | 110 |
| Cc1c(Cn2nc[nH]c2=O)sc2c1c(=O)n(C1(C)CC1)c(=O)n2CC#N [Example 69, [5-Methyl-3-(1-methylcyclopropyl)-2,4-dioxo-6-[(5-oxo-4,5-dihydro-1H-1,2,4-triazol-1-yl)methyl]-3,4-dihydrothieno[2,3-d]pyrimidin-1(2H)-yl]acetonitrile] | 120 |
